Assay results as given in paper PMC3038857, “Using Nuclear Receptor Activity to Stratify Hepatocarcinogens” (PLoS ONE, 2011).
Where two headings read alike, the source gives them in different places.

Experiments:
[1] = tested on: LXRa (NR1H2); experiment: NCGC_LXR_Agonist: GAL4 BLAM Reporter gene assay: LXRa; type: cell-based, human; settings: agonist mode
Experimental: These assays measure binding constants and enzyme inhibition values for nuclear receptors. The targets include [drawing 67] , [drawing 68] , [drawing 69] , [drawing 70] , [drawing 71] , [drawing 72] , [drawing 73] , [drawing 74] , [drawing 75] and [drawing 76] . Each of the nuclear receptor targets was measured in agonist mode. Assays were run at the NIH Chemical Genomics Center (Rockville, MD).
Cell-based HTS Assays: These assays measuring binding constants and enzyme inhibition values for nuclear receptors. The targets include AR, ER, FXR, LXR, PPARα, PPARδ, PPARγ, RXRα, RXRβ and PXR. Each of the nuclear receptor targets was measured in both agonist and antagonist mode, but the antagonist data is still undergoing analysis due to possible interference between cytotoxicity and assay activity, so antagonist mode data were not used in the present analysis. Assays were run at the NIH Chemical Genomics Center (Rockville, MD) as part of the Tox21 collaboration. […] The R^2 was required to be ≥0.5. Values where only the highest concentration exceeded 50% activity were excluded to eliminate weak or false positives. Detailed description of the methods, data and analysis methods for this dataset will be presented in a separate publication.

[2] = tested on: Rat Liver; settings: ref ToxRefDB, cited from earlier work
[3] = tested on: Rat Liver; settings: ref ToxRefDB, cited from earlier work; remark: listed apart in the source
[4] = tested on: Rat Liver; settings: ref ToxRefDB, cited from earlier work; remark: listed apart in the source
[5] = target: T1, PXR (NR1I2) (Homo sapiens, UniProt O75469); experiment: ATG_PXRE_CIS: Factorial reporter gene assay (HepG2); type: cell-based; parameters: endogenous in cells; host or cells: HepG2; settings: HepG2 reporter
T1 sequence (O75469 1-434): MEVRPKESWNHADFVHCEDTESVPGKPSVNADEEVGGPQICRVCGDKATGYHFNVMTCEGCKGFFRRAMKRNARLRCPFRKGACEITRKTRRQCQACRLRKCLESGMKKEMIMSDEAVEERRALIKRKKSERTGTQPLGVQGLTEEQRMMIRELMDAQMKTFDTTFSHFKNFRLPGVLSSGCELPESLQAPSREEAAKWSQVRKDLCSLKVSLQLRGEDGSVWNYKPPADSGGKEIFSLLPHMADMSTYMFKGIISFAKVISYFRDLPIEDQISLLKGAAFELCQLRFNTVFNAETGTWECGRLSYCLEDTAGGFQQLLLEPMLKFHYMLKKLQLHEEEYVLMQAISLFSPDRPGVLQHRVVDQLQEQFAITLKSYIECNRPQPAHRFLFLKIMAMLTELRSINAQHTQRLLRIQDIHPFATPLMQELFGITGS
Summary of the method: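 HepG2 cells transfected with multiplexed reporter libraries: cis-acting binding-site reporters (CIS) and a one-hybrid nuclear-receptor trans system (TRANS). Chemicals tested at seven concentrations, starting at the maximum tolerated concentration with three-fold serial dilutions.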

[6] = tested on: CYP3A4; experiment: CLZD_CYP3A4: Change in expression of CYP3A4 (primary human hepatocytes); type: cell-based; settings: 24 hr
Summary of the method: (§1)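 Cultured primary human hepatocytes treated with chemicals for 6, 24 or 48 hr across five concentrations spanning 0.004-40 µM, then transcript level measured by quantitative nuclease protection in a multiplexed format.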

[7] = tested on: HMGCS2; experiment: CLZD_HMGCS2: Change in expression of HMGCS2 (primary human hepatocytes); type: cell-based; settings: 24 hr
Experimental: This is a collection of multiplexed gene expression assays focused on Phase I and II xenobiotic metabolizing enzymes and transporters. Human primary cell cultures were treated with chemicals at 5 concentrations (0.004-40 [drawing 42] M) for 6, 24 and 48 hr. Concentration- and time-response profiles of chemicals were measured by the expression of key nuclear receptor target genes, activities of CYP1A enzymes (EROD), and cell morphology. Fourteen gene targets were monitored by quantitative nuclease protection assay including: six representative cytochrome P-450 genes, four hepatic transporters, three Phase II conjugating enzymes, and one endogenous metabolism gene involved in cholesterol synthesis. The target genes associated with nuclear receptor pathways are as follows: [drawing 43] and [drawing 44] with [drawing 45]; [drawing 46] , [drawing 47] , [drawing 48] , [drawing 49] , [drawing 50] and [drawing 51] with [drawing 52]; [drawing 53] , [drawing 54] , [drawing 55] and [drawing 56] with [drawing 57]; [drawing 58] with [drawing 59]; and [drawing 60] with [drawing 61] . Assays were run in primary human hepatocyte cultures by CellzDirect Invitrogen Inc. (Durham, NC), in collaboration with EPA.
Multiplexed Gene Expression in Human Primary Hepatocytes: This is a collection of multiplexed gene expression assays focused on Phase I and II metabolic enzymes and transporters. […] Fourteen gene targets were monitored by quantitative nuclease protection assay: six representative cytochrome P450 genes, four hepatic transporters, three Phase II conjugating enzymes, and one endogenous metabolism gene involved in cholesterol synthesis. Cells were exposed at 5 concentrations (0.004-40 µM) for 6, 24 or 48 hr. Gene targets are sentinels for five nuclear receptor signaling pathways: AhR, CAR, PXR, FXR, and PPARα. All gene are associated with nuclear receptor pathways: CYP1A1 and CYP1A2 with AHR; ABCB1, ABCG2, CYP2B6, CYP2C9, CYP2C19 and UGT1A1 with CAR; CYP3A4, GSTA2, SLCO1B1 and SULT2A1 with PXR; HMGCS2 with PPARA; and ABCB11 with FXR. […] Detailed description of the methods, data and analysis methods for this dataset will be presented in a separate publication.

[8] = tested on: Mouse Liver; settings: ref ToxRefDB, cited from earlier work
[9] = tested on: Mouse Liver; settings: chronic study, mouse liver; ref ToxRefDB; cited from earlier work
[10] = tested on: Mouse Liver; settings: chronic study, mouse liver; ref ToxRefDB; cited from earlier work; remark: listed apart in the source
[11] = target: T2, LXRa (NR1H3) (Homo sapiens, UniProt Q13133); experiment: ATG_LXRa_TRANS: Factorial reporter gene assay (HepG2); type: cell-based
T2 construct: expressed in transfected cells; host or cells: HepG2
T2 sequence (Q13133 1-447): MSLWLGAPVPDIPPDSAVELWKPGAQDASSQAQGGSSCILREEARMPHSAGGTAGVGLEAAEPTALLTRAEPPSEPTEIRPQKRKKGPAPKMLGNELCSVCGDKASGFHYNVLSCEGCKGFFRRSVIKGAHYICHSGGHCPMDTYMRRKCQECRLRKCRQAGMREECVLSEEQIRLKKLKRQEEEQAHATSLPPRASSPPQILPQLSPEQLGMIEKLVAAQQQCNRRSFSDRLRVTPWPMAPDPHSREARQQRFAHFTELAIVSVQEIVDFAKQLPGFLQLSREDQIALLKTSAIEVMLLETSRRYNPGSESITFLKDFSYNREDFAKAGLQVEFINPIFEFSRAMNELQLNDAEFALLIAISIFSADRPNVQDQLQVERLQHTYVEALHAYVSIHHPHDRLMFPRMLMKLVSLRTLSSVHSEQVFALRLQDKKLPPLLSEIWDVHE
Experimental: (§2) A multiple reporter transcription unit (MRTU) library consisting of 48 transcription factor binding sites was transfected into the HepG2 human liver hepatoma cell line. In addition to the cis-acting reporter genes (CIS), a modification of the approach was used to generate a trans-system (TRANS) with a mammalian one-hybrid assay consisting of an additional 25 MRTU library reporting the activity of nuclear receptor super-family members. […] These assays were performed by Attagene Inc. (Morrisville NC) under contract to EPA.
(§3) In addition to the cis-acting reporter genes (CIS), a modification of the approach was used to generate a trans-system (TRANS) with a mammalian one-hybrid assay consisting of an additional 25 MRTU library reporting the activity of nuclear receptor super-family members. […] Chemicals were then tested in the CIS and TRANS assays at seven concentrations starting at the MTC and followed by three-fold serial dilutions. These assays were performed by Attagene Inc. (Morrisville NC) under contract to EPA. Detailed description of the methods, data and analysis methods for this dataset will be presented in a separate publication.

[12] = target: T3, AHR (aryl hydrocarbon receptor) (Homo sapiens, UniProt P35869); experiment: ATG_Ahr_CIS: Factorial reporter gene assay (multiplexed transcription reporter, HepG2); type: cell-based; settings: HepG2 reporter
T3 construct: endogenous in cells; host or cells: HepG2
T3 sequence (P35869 11-848): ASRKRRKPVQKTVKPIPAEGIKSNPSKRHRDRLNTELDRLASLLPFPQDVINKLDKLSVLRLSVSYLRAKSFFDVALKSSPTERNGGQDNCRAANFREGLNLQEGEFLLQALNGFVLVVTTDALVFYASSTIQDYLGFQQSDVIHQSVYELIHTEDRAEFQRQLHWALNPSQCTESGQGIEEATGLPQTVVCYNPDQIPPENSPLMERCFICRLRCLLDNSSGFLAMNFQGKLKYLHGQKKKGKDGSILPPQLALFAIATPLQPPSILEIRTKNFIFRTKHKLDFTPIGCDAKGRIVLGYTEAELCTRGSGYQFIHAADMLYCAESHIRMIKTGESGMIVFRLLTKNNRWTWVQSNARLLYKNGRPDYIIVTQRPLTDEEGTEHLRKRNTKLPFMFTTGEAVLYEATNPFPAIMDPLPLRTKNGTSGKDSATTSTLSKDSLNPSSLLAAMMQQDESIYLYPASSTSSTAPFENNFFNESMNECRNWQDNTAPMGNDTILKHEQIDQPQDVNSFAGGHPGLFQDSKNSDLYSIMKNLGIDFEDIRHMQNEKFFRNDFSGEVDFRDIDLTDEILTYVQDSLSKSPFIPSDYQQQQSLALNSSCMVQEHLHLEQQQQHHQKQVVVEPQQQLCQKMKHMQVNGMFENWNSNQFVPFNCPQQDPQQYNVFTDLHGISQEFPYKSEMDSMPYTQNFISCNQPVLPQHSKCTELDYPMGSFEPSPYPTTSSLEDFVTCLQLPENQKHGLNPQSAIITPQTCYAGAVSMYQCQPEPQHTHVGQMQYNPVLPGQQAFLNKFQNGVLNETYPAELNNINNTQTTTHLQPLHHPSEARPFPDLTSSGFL
Summary of the method: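 Seven concentrations per chemical, three-fold dilutions down from the MTC, were tested in HepG2 hepatoma cells. Those cells carried a multiple reporter transcription unit library, read either as cis transcription-factor-site reporters or as a trans mammalian one-hybrid panel for nuclear receptors.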

[13] = tested on: CYP2B6; experiment: CLZD_CYP2B6: Change in expression of CYP2B6 (primary human hepatocytes); type: cell-based; settings: 24 hr
Summary of the method: as §1

[14] = target: T4, CAR (NR1I3) (Homo sapiens, UniProt Q14994); experiment: ATG_PBREM_CIS: Factorial reporter gene assay (HepG2); type: cell-based; parameters: endogenous in cells; host or cells: HepG2; settings: HepG2 reporter
T4 sequence (Q14994 1-352): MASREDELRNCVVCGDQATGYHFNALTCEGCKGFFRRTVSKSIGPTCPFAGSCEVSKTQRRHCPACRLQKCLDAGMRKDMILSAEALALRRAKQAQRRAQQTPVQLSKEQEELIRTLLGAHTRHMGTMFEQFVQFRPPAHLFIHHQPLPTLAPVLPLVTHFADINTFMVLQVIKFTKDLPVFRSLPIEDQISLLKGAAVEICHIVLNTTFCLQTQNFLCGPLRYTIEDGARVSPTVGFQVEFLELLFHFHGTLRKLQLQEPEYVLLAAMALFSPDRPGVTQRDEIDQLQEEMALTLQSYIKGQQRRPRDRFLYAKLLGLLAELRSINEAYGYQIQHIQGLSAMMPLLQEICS
Experimental: as §2, §3

Row | Structure (SMILES) | NCGC_LXR_Agonist [1] | CHR_Rat_Liver_1_AnyLesion ([2]; chronic study, rat liver) | CHR_Rat_Liver_2_PreneoplasticLesion ([3]; chronic study, rat liver) | CHR_Rat_Liver_3_NeoplasticLesion ([4]; chronic study, rat liver) | ATG_PXRE_CIS [5] | CLZD_CYP3A4_24 [6] | CLZD_HMGCS2_24 [7] | CHR_Mouse_Liver_1_AnyLesion ([8]; chronic study, mouse liver) | CHR_Mouse_Liver_2_PreneoplasticLesion [9] | CHR_Mouse_Liver_3_NeoplasticLesion [10] | ATG_LXRa_TRANS ([11]; HepG2 reporter) | ATG_Ahr_CIS [12] | CLZD_CYP2B6_24 [13] | ATG_PBREM_CIS [14] | CHR_Rat_Liver_1_AnyLesion ([2]; chronic rat study, liver) | CHR_Rat_Liver_2_PreneoplasticLesion ([3]; chronic rat study, liver) | CHR_Rat_Liver_3_NeoplasticLesion ([4]; chronic rat study, liver) | ATG_LXRa_TRANS ([11]; HepG2) | CHR_Mouse_Liver_1_AnyLesion ([8]; chronic mouse study, liver)
1 | CCCOc1nn(C(=O)[N-]S(=O)(=O)c2ccccc2C(=O)OC)c(=O)n1C.[Na+] [r264] | 4.648 | 0 | 0 | 0 | 4.252 | – | – | – | – | – | – | – | – | – | – | – | – | – | –
2 | COc1cc(OC)nc(Sc2cccc(Cl)c2C(=O)[O-])n1.[Na+] [r275] | – | 6 | 6 | 0 | – | 4.874 | 5.29 | 6 | 6 | 6 | – | – | – | – | – | – | – | – | –
3 | CCOC(=O)C(C)Oc1ccc(Oc2cnc3cc(Cl)ccc3n2)cc1 (stereo not shown) [r279] | – | 6 | 0 | 0 | 4.523 | – | 5.409 | 6 | 6 | 6 | 4.824 | – | – | – | – | – | – | – | –
4 | CCCN(CC)CC1COC2(CCC(C(C)(C)C)CC2)O1 (stereo not shown) [r286] | – | 0 | 0 | 0 | 4.886 | 5.192 | – | – | – | – | – | 4.444 | 4.532 | 4.721 | – | – | – | – | –
5 | C[N+]1(C)CCCCC1.[Cl-] [row 193] | – | – | – | – | – | – | 5.889 | – | – | – | – | – | – | – | 0 | 0 | 0 | – | –
6 | O=C(NC(=O)c1c(F)cccc1F)Nc1ccc(OC(F)(F)C(F)OC(F)(F)F)c(Cl)c1 (stereo not shown) [row 223] | 4.536 | – | – | – | – | – | – | – | – | – | – | – | – | – | 6 | 0 | 0 | 4.523 | 6
